The source of these data is patent US10065941B2, “Aminotriazine derivative and pharmaceutical composition comprising the same” (Shionogi & Co., Ltd., priority 2013, dated 2018).

Molecules are shown by their SMILES. pIC50: −log10 of the molar value.

Sequence of human P2X3 receptor (P56373 whole entry): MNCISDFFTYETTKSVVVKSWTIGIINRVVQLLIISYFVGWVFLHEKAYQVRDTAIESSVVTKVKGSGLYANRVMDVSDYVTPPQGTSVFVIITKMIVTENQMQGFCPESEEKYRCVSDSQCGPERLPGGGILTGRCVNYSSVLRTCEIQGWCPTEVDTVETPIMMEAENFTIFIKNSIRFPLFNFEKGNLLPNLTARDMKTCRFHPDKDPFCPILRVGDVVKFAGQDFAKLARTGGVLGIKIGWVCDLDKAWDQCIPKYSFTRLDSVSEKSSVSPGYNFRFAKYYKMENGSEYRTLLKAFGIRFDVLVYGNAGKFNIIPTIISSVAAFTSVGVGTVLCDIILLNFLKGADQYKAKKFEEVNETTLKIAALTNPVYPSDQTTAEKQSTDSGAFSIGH

For this assay, the target named is human P2X3 receptor (Homo sapiens (Human), UniProt P56373). Kind of assay: Evaluation of human P2X3 receptor inhibitory activity (Test Example 1). It is filed as cell-based. Conditions: C6BU-1 cell transfected with human P2X3 receptor gene, FLIPR 384. The procedure:
Stably expressing cell line (C6BU-1 cell transfected with human P2X3 receptor gene (GenBank accession number Y07683) was used. The cells were seeded in a 384-well PDL-coated microtiter plate at a concentration of 3000 cells/well and cultured in the medium (8.3% fetal bovine serum, 8.3% horse serum, and 1% antibiotic and antifungal in DMEM) for one day at 37° C. under 5% carbon dioxide atmosphere. The medium was replaced with 4 μM Fluo-3-AM solution (20 mM HEPES, 137 mM NaCl, 2.7 mM KCl, 0.9 mM MgCl2, 5.0 mM CaCl2, 5.6 mM D-glucose, 2.5 mM probenecid, 0.5% BSA, and 0.04% Pluronic F-127, pH 7.5) and incubated at 37° C. under 5% dioxide carbon atmosphere for one hour. The plate was washed with washing buffer (20 mM HEPES, 137 mM NaCl, 2.7 mM KCl, 0.9 mM MgCl2, 5.0 mM CaCl2, 5.6 mM D-glucose, 2.5 mM probenecid, pH7.5), and each well was added with 20 μL of the washing buffer. The plate was placed in High-Throughput Screening System FLIPR 384 (Molecular Device Co.). Measurement of fluorescence intensity by FLIPR 384 was started, and 20 μL of DMSO solutions containing different concentrations of the test compound as prepared by dilution with dilution buffer (20 mM HEPES, 137 mM NaCl, 2.7 mM KCl, 0.9 mM MgCl2, 5.0 mM CaCl2, 5.6 mM D-glucose, 2.5 mM probenecid, 0.1% Pluronic F-127, pH7.5) were dispensed to each well through the built-in automatic dispenser. Five minutes after, 150 nM ATP solution (25 μL) prepared by dilution with the dilution buffer was dispensed through the built-in automatic dispenser, and the measurement of fluorescence intensity was continued for 4 min. For each well, the specific maximum fluorescence intensity was calculated as the ratio of the maximum fluorescence intensity after addition of the ATP solution to the fluorescence intensity at the starting of the measurement. […] The specific maximum fluorescence intensity and IC50 were calculated using Spotfire (Science & Technology Systems, Inc.)
In general, pIC50 refers to the IC50 on a negative log10 scale, so that one unit is a factor of ten. In turn, `COC(=O)[C@H](C)[C@H](C)n1c(=O)[nH]/c(=N\c2ccc(Oc3ccc(F)cn3)c(F)c2)n(Cc2ccc(Cl)cc2)c1=O` [Compound I-001] showed a pIC50 of 7.36.

For the molecule `COC(=O)C(C)(C)Cn1c(=O)[nH]/c(=N\c2ccc(Oc3ccc(F)cn3)cc2)n(Cc2ccc(Cl)cc2)c1=O` [Compound I-003], the pIC50 is 8.15.

As for `COC(=O)C(C)(C)Cn1c(=O)[nH]/c(=N\c2ccc(Oc3ccc(Cl)cn3)cc2)n(Cc2ccc(Cl)cc2)c1=O` [Compound I-004], the pIC50 was 7.85.

The molecule `CC(C)(Cn1c(=O)[nH]/c(=N\c2ccc(Oc3ccc(F)cn3)cc2)n(Cc2ccc(Cl)cc2)c1=O)C(=O)O` [Compound I-005] showed a pIC50 of 8.10.

`COC(=O)C(C)(C)Cn1c(=O)[nH]/c(=N\c2ccc(Oc3ncccc3F)cc2)n(Cc2ccc(Cl)cc2)c1=O` [Compound I-007] had a negative logarithm of the IC50 (pIC50) of 8.05.

Consider `COC(=O)C(C)(C)Cn1c(=O)[nH]/c(=N\c2ccc(Oc3cccc(F)n3)cc2)n(Cc2ccc(Cl)cc2)c1=O` [Compound I-008], for which the pIC50 was 8.15.

In turn, `CC(C)(Cn1c(=O)[nH]/c(=N\c2ccc(Oc3ncccc3F)cc2)n(Cc2ccc(Cl)cc2)c1=O)C(=O)O` [Compound I-009] showed a pIC50 of 8.15.

For the molecule `CC(C)(Cn1c(=O)[nH]/c(=N\c2ccc(Oc3cccc(F)n3)cc2)n(Cc2ccc(Cl)cc2)c1=O)C(=O)O` [Compound I-010], the pIC50 was 8.30.

In the case of `COC(=O)[C@@H](C)Cn1c(=O)[nH]/c(=N\c2ccc(Oc3cccc(Cl)n3)cc2)n(Cc2ccc(Cl)cc2)c1=O` [Compound I-011], the negative logarithm of the IC50 (pIC50) is 7.74.

The molecule `COC(=O)C(C)(C)Cn1c(=O)[nH]/c(=N\c2ccc(Oc3cccc(Cl)n3)cc2)n(Cc2ccc(Cl)cc2)c1=O` [Compound I-012] had a pIC50 of 7.60.

For `COC(=O)[C@H](C)[C@H](C)n1c(=O)[nH]/c(=N\c2ccc(Oc3cccc(Cl)n3)cc2)n(Cc2ccc(Cl)cc2)c1=O` [Compound I-013], the negative logarithm of the IC50 (pIC50) was 7.24.

In the case of `CC(C)(Cn1c(=O)[nH]/c(=N\c2ccc(Oc3cccc(Cl)n3)cc2)n(Cc2ccc(Cl)cc2)c1=O)C(=O)O` [Compound I-015], the pIC50 was 8.05.

In turn, `C[C@@H](C(=O)O)[C@H](C)n1c(=O)[nH]/c(=N\c2ccc(Oc3cccc(Cl)n3)cc2)n(Cc2ccc(Cl)cc2)c1=O` [Compound I-016] showed a pIC50 of 8.10.

Molecule `O=C(O)C1(Cn2c(=O)[nH]/c(=N\c3ccc(Oc4ccc(F)cn4)cc3)n(Cc3ccc(Cl)cc3)c2=O)CC1` [Compound I-018] had a pIC50 of 7.92.

For the molecule `O=c1[nH]/c(=N\c2ccc(Oc3ccc(F)cn3)cc2)n(Cc2ccc(Cl)cc2)c(=O)n1[C@H]1C[C@@H](C(=O)O)C1` [Compound I-020], the negative logarithm of the IC50 (pIC50) is 8.05.

`COC(=O)C(C)(C)Cn1c(=O)[nH]/c(=N\c2ccc(Oc3ccc(OC(F)F)cn3)cc2)n(Cc2ccc(Cl)cc2)c1=O` [Compound I-021] gave a pIC50 of 7.60.

Molecule `C[C@@H](Cn1c(=O)[nH]/c(=N\c2ccc(Oc3ccc(OC(F)F)cn3)cc2)n(Cc2ccc(Cl)cc2)c1=O)C(=O)O` [Compound I-022] had a negative logarithm of the IC50 (pIC50) of 8.40.

In the case of `CC(C)(Cn1c(=O)[nH]/c(=N\c2ccc(Oc3ccc(OC(F)F)cn3)cc2)n(Cc2ccc(Cl)cc2)c1=O)C(=O)O` [Compound I-023], the pIC50 was 8.15.

Regarding `COC(=O)[C@@H](C)Cn1c(=O)[nH]/c(=N\c2ccc(Oc3ncccc3F)cc2)n(Cc2ccc(F)cc2F)c1=O` [Compound I-024], the negative logarithm of the IC50 (pIC50) was 7.47.

`COC(=O)[C@@H](C)Cn1c(=O)[nH]/c(=N\c2ccc(Oc3cccc(F)n3)cc2)n(Cc2ccc(F)cc2F)c1=O` [Compound I-026] had a negative logarithm of the IC50 (pIC50) of 7.77.

With `C[C@@H](Cn1c(=O)[nH]/c(=N\c2ccc(Oc3ncccc3F)cc2)n(Cc2ccc(F)cc2F)c1=O)C(=O)O` [Compound I-027], the negative-log IC50 (pIC50) was 7.41.

Molecule `C[C@@H](Cn1c(=O)[nH]/c(=N\c2ccc(Oc3ccc(F)cn3)cc2)n(Cc2ccc(F)cc2F)c1=O)C(=O)O` [Compound I-028] had a pIC50 of 7.70.

Molecule `COC(=O)[C@@H](C)Cn1c(=O)[nH]/c(=N\c2ccc(Oc3ncccc3C(F)(F)F)cc2)n(Cc2ccc(Cl)cc2)c1=O` [Compound I-030] gave a pIC50 of 6.75.

In turn, `COC(=O)C(C)(C)Cn1c(=O)[nH]/c(=N\c2ccc(Oc3ncccc3C(F)(F)F)cc2)n(Cc2ccc(Cl)cc2)c1=O` [Compound I-031] had a pIC50 of 6.70.

For the molecule `C[C@@H](Cn1c(=O)[nH]/c(=N\c2ccc(Oc3ncccc3C(F)(F)F)cc2)n(Cc2ccc(Cl)cc2)c1=O)C(=O)O` [Compound I-032], the pIC50 is 7.96.

As to `CC(C)(Cn1c(=O)[nH]/c(=N\c2ccc(Oc3ncccc3C(F)(F)F)cc2)n(Cc2ccc(Cl)cc2)c1=O)C(=O)O` [Compound I-033], the pIC50 is 7.64.

In turn, `COC(=O)[C@@H](C)Cn1c(=O)[nH]/c(=N\c2ccc(Oc3ccc(C(F)(F)F)cn3)cc2)n(Cc2ccc(C)cc2)c1=O` [Compound I-034] had a negative logarithm of the IC50 (pIC50) of 8.05.

Consider `COC(=O)[C@@H](C)Cn1c(=O)[nH]/c(=N\c2ccc(Oc3cccc(C(F)(F)F)n3)cc2)n(Cc2ccc(C)cc2)c1=O` [Compound I-035], for which the negative logarithm of the IC50 (pIC50) is 7.92.

In the case of `COC(=O)C(C)(C)Cn1c(=O)[nH]/c(=N\c2ccc(Oc3ccc(F)cn3)cc2)n(Cc2ccc(C)cc2)c1=O` [Compound I-037], the negative logarithm of the IC50 (pIC50) is 8.22.

For the molecule `Cc1ccc(Cn2c(=O)n(C[C@H](C)C(=O)O)c(=O)[nH]/c2=N\c2ccc(Oc3ccc(C(F)(F)F)cn3)cc2)cc1` [Compound I-038], the negative logarithm of the IC50 (pIC50) was 8.30.

As for `Cc1ccc(Cn2c(=O)n(C[C@H](C)C(=O)O)c(=O)[nH]/c2=N\c2ccc(Oc3cccc(C(F)(F)F)n3)cc2)cc1` [Compound I-039], the negative-log IC50 (pIC50) is 8.10.

`Cc1ccc(Cn2c(=O)n(CC(C)(C)C(=O)O)c(=O)[nH]/c2=N\c2ccc(Oc3ccc(F)cn3)cc2)cc1` [Compound I-041] showed a negative-log IC50 (pIC50) of 8.05.

In the case of `O=c1[nH]/c(=N\c2ccc(Oc3cccc(F)n3)cc2)n(Cc2ccc(Cl)cc2)c(=O)n1CC1(CO)COC1` [Compound I-042], the pIC50 was 8.40.

Take `COC(=O)[C@@H](C)Cn1c(=O)[nH]/c(=N\c2ccc(Oc3ncccc3OC(F)F)cc2)n(Cc2ccc(Cl)cc2)c1=O` [Compound I-043]: the pIC50 is 6.93.

`C[C@@H](Cn1c(=O)[nH]/c(=N\c2ccc(Oc3ncccc3OC(F)F)cc2)n(Cc2ccc(Cl)cc2)c1=O)C(=O)O` [Compound I-044] showed a pIC50 of 7.59.

Molecule `COC(=O)[C@@H](C)Cn1c(=O)[nH]/c(=N\c2ccc(Oc3ncccc3C#N)cc2)n(Cc2ccc(Cl)cc2)c1=O` [Compound I-045] had a pIC50 of 7.72.

On to `COC(=O)C(C)(C)Cn1c(=O)[nH]/c(=N\c2ccc(Oc3ncccc3C#N)cc2)n(Cc2ccc(Cl)cc2)c1=O` [Compound I-046], for which the pIC50 was 7.72.

With `C[C@@H](Cn1c(=O)[nH]/c(=N\c2ccc(Oc3ncccc3C#N)cc2)n(Cc2ccc(Cl)cc2)c1=O)C(=O)O` [Compound I-047], the pIC50 is 7.66.

Regarding `CC(C)(Cn1c(=O)[nH]/c(=N\c2ccc(Oc3ncccc3C#N)cc2)n(Cc2ccc(Cl)cc2)c1=O)C(=O)O` [Compound I-048], the negative-log IC50 (pIC50) is 7.52.

Molecule `O=C(O)C1(Cn2c(=O)[nH]/c(=N\c3ccc(Oc4cccc(F)n4)cc3)n(Cc3ccc(Cl)cc3)c2=O)COC1` [Compound I-049] gave a negative logarithm of the IC50 (pIC50) of 7.82.

Molecule `O=C(O)C1(Cn2c(=O)[nH]/c(=N\c3ccc(Oc4ncccc4F)cc3)n(Cc3ccc(Cl)cc3)c2=O)COC1` [Compound I-050] had a pIC50 of 7.55.
